According to patent US20260306680A1, “RADIOLABELED COMPOUNDS TARGETING THE PROSTATE-SPECIFIC MEMBRANE ANTIGEN” (PROVINCIAL HEALTH SERVICES AUTHORITY, priority 2022, published 2026):
Like-named read-outs stand apart in the source and are kept apart here. One block for each molecule: values may come before it.

Legend:
[1] = system: LNCaP tumor xenografts; experiment: Ex vivo biodistribution in mice bearing LNCaP tumor xenografts; parameters: species or system mouse (male NOD-scid IL2Rg^null (NSG)); details: mean ± SD
Description: (§1) All imaging and biodistribution studies used male NOD-scid IL2Rg^null (NSG) mice and conducted according to the guidelines established by the Canadian Council on Animal Care and approved by Animal Ethics Committee of the University of British Columbia. For tumor inoculations, mice were anesthetized via inhalation of 2% isoflurane in oxygen and implanted subcutaneously with 5×10^6 LNCaP cells below the left shoulder. Imaging and biodistribution studies were performed only after tumors grew to 5-8 mm in diameter.
(§2) For PET/CT imaging studies, approximately 5 MBq of the ^18F-labeled tracer was injected through the tail vein. While for ex vivo biodistribution studies, mice were injected with around 2 MBq of the ^18F-labeled tracer through the tail vein. Mice were allowed to recover and roam freely in the cages after injecting the tracer. At 45 min post-injection, imaging mouse were sedated again and positioned on the scanner. A 10 min CT scan was conducted first to allow for localization and attenuation correction for later reconstruction of PET images. A 10 min PET image was acquired following CT scan. Heating pads were used during the entire procedure to keep the mice warm and circulate the blood. At 1 h post-injection, all mice for biodistribution study were euthanized with blood drawn from heart, and all tissues of interest were collected, rinsed with PBS, blotted dry, weighed, and counted using an automated gamma counter. The uptake in each organ/tissue was normalized to the injected dose and expressed as the percentage of the injected dose per gram of tissue (% ID/g).
(§3) Representative maximum intensity projection PET images of ^18F-KLF1007-pyridine-BF3 and ^18F-KL01040 acquired at 1 h post-injection from LNCaP tumor-bearing mice is enumerated in Table 4 and shown in FIG. 1. Representative maximum intensity projection PET images of ^18F-KL01120 and ^18F-KL01130 acquired at 1 h post-injection from LNCaP tumor-bearing mice is also enumerated in Table 5 and shown in FIG. 2 (^18F-KL1120) and enumerated in Table 6 and shown in FIG. 3 (^18F-KL01130).

[2] = as above; parameters: species or system mouse (male NOD-scid IL2Rg^null (NSG)); details: mouse, iv, mean ± SD
Description: as §1, §2, §3

[3] = 1 h Blocked (co-injection of 2-PMPA, 0.5 mg)
[4] = adrenal glands, 1 h post-injection, read-out: Adrenal Glands uptake
[5] = blood, 1 h post-injection, read-out: Blood uptake
[6] = bone, 1 h post-injection, read-out: Bone uptake
[7] = brain, 1 h post-injection, read-out: Brain uptake
[8] = fat, 1 h post-injection, read-out: Fat uptake
[9] = heart, 1 h post-injection, read-out: Heart uptake
[10] = kidneys, 1 h post-injection, read-out: Kidneys uptake
[11] = lacrimal glands, 1 h post-injection, read-out: Lacrimal Glands uptake
[12] = liver, 1 h post-injection, read-out: Liver uptake
[13] = lncap tumor, 1 h post-injection, read-out: LNCaP Tumor uptake
[14] = lungs, 1 h post-injection, read-out: Lungs uptake
[15] = muscle, 1 h post-injection, read-out: Muscle uptake
[16] = pancreas, 1 h post-injection, read-out: Pancreas uptake
[17] = salivary glands, 1 h post-injection, read-out: Salivary Glands uptake
[18] = seminal glands, 1 h post-injection, read-out: Seminal Glands uptake
[19] = small intestine, 1 h post-injection, read-out: Small Intestine uptake
[20] = spleen, 1 h post-injection, read-out: Spleen uptake
[21] = stomach, 1 h post-injection, read-out: Stomach uptake
[22] = testes, 1 h post-injection, read-out: Testes uptake
[23] = thyroid, 1 h post-injection, read-out: Thyroid uptake

Tumor:Muscle uptake ratio [1, 3]: 9.96 ± 3.13
Tumour:Blood uptake ratio [1, 3]: 2.21 ± 0.46
Tumour:Bone uptake ratio [1, 3]: 8.46 ± 4.80
Tumour:Kidney uptake ratio [1, 3]: 0.45 ± 0.05
Tumor:Muscle uptake ratio ([1]; 1 h post-injection): 6.58 ± 1.38
Tumour:Blood uptake ratio ([1]; 1 h post-injection): 8.41 ± 2.02
Tumour:Bone uptake ratio ([1]; 1 h post-injection): 9.31 ± 3.39
Tumour:Kidney uptake ratio ([1]; 1 h post-injection): 0.07 ± 0.02
tissue uptake at 1 h ([2]; adrenal glands, 1 h Blocked (co-injection of 2-PMPA, 0.5 mg), read-out: Adrenal Glands uptake): 0.48 ± 0.21 %ID/g
tissue uptake at 1 h [2, 4]: 11.2 ± 4.71 %ID/g
tissue uptake at 1 h ([2]; blood, 1 h Blocked (co-injection of 2-PMPA, 0.5 mg), read-out: Blood uptake): 0.86 ± 0.2 %ID/g
tissue uptake at 1 h [2, 5]: 0.71 ± 0.14 %ID/g
tissue uptake at 1 h ([2]; bone, 1 h Blocked (co-injection of 2-PMPA, 0.5 mg), read-out: Bone uptake): 0.35 ± 0.23 %ID/g
tissue uptake at 1 h [2, 6]: 0.92 ± 0.46 %ID/g
tissue uptake at 1 h ([2]; brain, 1 h Blocked (co-injection of 2-PMPA, 0.5 mg), read-out: Brain uptake): 0.03 %ID/g
tissue uptake at 1 h [2, 7]: 0.05 ± 0.01 %ID/g
tissue uptake at 1 h ([2]; fat, 1 h Blocked (co-injection of 2-PMPA, 0.5 mg), read-out: Fat uptake): 0.18 ± 0.05 %ID/g
tissue uptake at 1 h [2, 8]: 1.57 ± 0.55 %ID/g
tissue uptake at 1 h ([2]; heart, 1 h Blocked (co-injection of 2-PMPA, 0.5 mg), read-out: Heart uptake): 0.35 ± 0.06 %ID/g
tissue uptake at 1 h [2, 9]: 2.9 ± 0.66 %ID/g
tissue uptake at 1 h ([2]; kidneys, 1 h Blocked (co-injection of 2-PMPA, 0.5 mg), read-out: Kidneys uptake): 4.29 ± 1.34 %ID/g
tissue uptake at 1 h [2, 10]: 88.1 ± 17.4 %ID/g
tissue uptake at 1 h ([2]; lacrimal glands, 1 h Blocked (co-injection of 2-PMPA, 0.5 mg), read-out: Lacrimal Glands uptake): 0.07 ± 0.05 %ID/g
tissue uptake at 1 h [2, 11]: 0.06 ± 0.03 %ID/g
tissue uptake at 1 h ([2]; large intestine, 1 h Blocked (co-injection of 2-PMPA, 0.5 mg), read-out: Large Intestine uptake): 0.25 ± 0.1 %ID/g
tissue uptake at 1 h ([2]; large intestine, 1 h post-injection, read-out: Large Intestine uptake): 1.11 ± 0.42 %ID/g
tissue uptake at 1 h ([2]; liver, 1 h Blocked (co-injection of 2-PMPA, 0.5 mg), read-out: Liver uptake): 0.59 ± 0.1 %ID/g
tissue uptake at 1 h [2, 12]: 2.64 ± 0.57 %ID/g
tissue uptake at 1 h ([2]; lncap tumor, 1 h Blocked (co-injection of 2-PMPA, 0.5 mg), read-out: LNCaP Tumor uptake): 1.87 ± 0.46 %ID/g
tissue uptake at 1 h [2, 13]: 6.21 ± 1.25 %ID/g
tissue uptake at 1 h ([2]; lungs, 1 h Blocked (co-injection of 2-PMPA, 0.5 mg), read-out: Lungs uptake): 0.81 ± 0.18 %ID/g
tissue uptake at 1 h [2, 14]: 4.1 ± 0.71 %ID/g
tissue uptake at 1 h ([2]; muscle, 1 h Blocked (co-injection of 2-PMPA, 0.5 mg), read-out: Muscle uptake): 0.27 ± 0.18 %ID/g
tissue uptake at 1 h [2, 15]: 0.9 ± 0.2 %ID/g
tissue uptake at 1 h ([2]; pancreas, 1 h Blocked (co-injection of 2-PMPA, 0.5 mg), read-out: Pancreas uptake): 0.27 ± 0.07 %ID/g
tissue uptake at 1 h [2, 16]: 2.22 ± 0.66 %ID/g
tissue uptake at 1 h ([2]; salivary glands, 1 h Blocked (co-injection of 2-PMPA, 0.5 mg), read-out: Salivary Glands uptake): 0.35 ± 0.08 %ID/g
tissue uptake at 1 h [2, 17]: 9.18 ± 2.36 %ID/g
tissue uptake at 1 h ([2]; seminal gland, 1 h Blocked (co-injection of 2-PMPA, 0.5 mg), read-out: Seminal Gland uptake): 0.76 ± 0.19 %ID/g
tissue uptake at 1 h [2, 18]: 0.98 ± 0.42 %ID/g
tissue uptake at 1 h ([2]; small intestine, 1 h Blocked (co-injection of 2-PMPA, 0.5 mg), read-out: Small Intestine uptake): 1.83 ± 0.37 %ID/g
tissue uptake at 1 h [2, 19]: 4.51 ± 0.87 %ID/g
tissue uptake at 1 h ([2]; spleen, 1 h Blocked (co-injection of 2-PMPA, 0.5 mg), read-out: Spleen uptake): 0.29 ± 0.03 %ID/g
tissue uptake at 1 h [2, 20]: 22.1 ± 2.92 %ID/g
tissue uptake at 1 h ([2]; stomach, 1 h Blocked (co-injection of 2-PMPA, 0.5 mg), read-out: Stomach uptake): 0.14 ± 0.06 %ID/g
tissue uptake at 1 h [2, 21]: 0.68 ± 0.17 %ID/g
tissue uptake at 1 h ([2]; testes, 1 h Blocked (co-injection of 2-PMPA, 0.5 mg), read-out: Testes uptake): 0.28 ± 0.07 %ID/g
tissue uptake at 1 h [2, 22]: 0.92 ± 0.29 %ID/g
tissue uptake at 1 h ([2]; thyroid, 1 h Blocked (co-injection of 2-PMPA, 0.5 mg), read-out: Thyroid uptake): 0.33 ± 0.08 %ID/g
tissue uptake at 1 h [2, 23]: 4.53 ± 0.74 %ID/g
SMILES: O=C(O)CC[C@H](NC(=O)N[C@@H](CCCCNC(=O)[C@H](Cc1c2ccccc2cc2ccccc12)NC(=O)[C@H]1CC[C@H](CNC(=O)[C@H](CCNC(=O)c2ccc(F)nc2)NC(=O)CCC(=O)N(CC(=O)O)CC(=O)O)CC1)C(=O)O)C(=O)O [^18F-KL01120]

tissue uptake at 1 h [2, 4]: 1.05 ± 0.26 %ID/g
tissue uptake at 1 h [2, 5]: 1.96 ± 0.37 %ID/g
tissue uptake at 1 h [2, 6]: 0.6 ± 0.18 %ID/g
tissue uptake at 1 h [2, 7]: 0.11 ± 0.08 %ID/g
tissue uptake at 1 h [2, 8]: 0.61 ± 0.15 %ID/g
tissue uptake at 1 h [2, 9]: 0.56 ± 0.14 %ID/g
tissue uptake at 1 h [2, 10]: 33.2 ± 10.1 %ID/g
tissue uptake at 1 h [2, 11]: 0.23 ± 0.06 %ID/g
tissue uptake at 1 h [2, 12]: 0.58 ± 0.15 %ID/g
tissue uptake at 1 h [2, 13]: 11.2 ± 2.06 %ID/g
tissue uptake at 1 h [2, 14]: 1.56 ± 0.4 %ID/g
tissue uptake at 1 h [2, 15]: 0.29 ± 0.06 %ID/g
tissue uptake at 1 h [2, 16]: 0.38 ± 0.05 %ID/g
tissue uptake at 1 h [2, 17]: 0.79 ± 0.11 %ID/g
tissue uptake at 1 h [2, 18]: 0.26 ± 0.06 %ID/g
tissue uptake at 1 h [2, 19]: 2.54 ± 0.5 %ID/g
tissue uptake at 1 h [2, 20]: 0.83 ± 0.41 %ID/g
tissue uptake at 1 h [2, 21]: 0.2 ± 0.07 %ID/g
tissue uptake at 1 h ([2]; tail, 1 h post-injection, read-out: Tail uptake): 1.31 ± 0.41 %ID/g
tissue uptake at 1 h [2, 22]: 0.47 ± 0.07 %ID/g
tissue uptake at 1 h [2, 23]: 0.6 ± 0.06 %ID/g
SMILES: O=C(O)CCC[C@H](NC(=O)N[C@@H](CCCCNC(=O)[C@H](Cc1c2ccccc2cc2ccccc12)NC(=O)[C@H]1CC[C@H](CNC(=O)[C@H](CCCCNC(=O)c2ccc(F)nc2)NC(=O)CN(CC(=O)O)CC(=O)O)CC1)C(=O)O)C(=O)O [^18F-KL01040]
